Experimental data taken from US5129937A, “Pyridyloxypyrimidine derivatives, preparation process thereof, and herbicidal compositions containing the same as active ingredients” (Mitsui Toatsu Chemicals Incorporated, priority 1989, dated 1992).

Legend:
[1] = system: Soybean (Glycine max); assay: Upland Soil Application Test, crop injury; assay type: in vivo; conditions: 30 g ai/a; soil application before emergence, wettable powder; observed 30 days later
Protocol: (§1) Resin-made 1/2500-are pots were filled with the soil of an upland field. After they were fertilized, soybean, corn and cotton were seeded and 2-3 cm soil covering was applied. Seeds of redroot pigweed, morningglory (Ipomoea purpurea), common lambsquarters, barnyardgrass, green foxtail, large crabgrass, foxtail meadow and johnsongrass had been uniformly mixed with the soil. They were allowed to germinate in a green house. One day later (before emergence of weeds), a wettable powder prepared from a predetermined amount of each test compound in a similar manner to the method described in Formulation Example 1 was diluted with water and then sprayed evenly at an application rate equal to 10 l per are onto the surface of the soil by means of a pressure-operated ULV (ultra low volume) sprayer. Influence to the crops and weeds were observed 30 days later. The results are shown in Table 3, in which the degree of damages of each test plant and the degree of injury to each crop were determined by comparing the air-dried weights of the test plant and crop with those of the corresponding plant and crop in untreated pots and are shown in accordance with the following standard: […]

[2] = system: Cotton (Gossypium indicum); assay: Upland Soil Application Test, crop injury; assay type: in vivo; conditions: 30 g ai/a; soil application before emergence, wettable powder; observed 30 days later
Protocol: as §1

[3] = system: Corn (Zea maize); assay: Upland Soil Application Test, crop injury; assay type: in vivo; conditions: 30 g ai/a; soil application before emergence, wettable powder; observed 30 days later
Protocol: as §1

[4] = system: ALS (acetolactate synthase); assay: ALS (Acetolactate Synthase) Inhibition Test, pea enzyme; assay type: biochemical; conditions: enzymoreaction inhibition rate at 10 ppm (5 μg/0.5 ml)
Protocol: (§2) To determine the selectivity in enzyme level between crops and weeds, an ALS inhibition test was conducted using pea as a representative of broadleaf crops and barnyardgrass as a representative of gramineous weeds.
(§3) After seeds of pea and barnyardgrass were allowed to germinate at 25° C. for 8-14 days in a dark place, partially-purified suspensions (Suspensions A) of acetolactate syntase were separately obtained from seedlings in accordance with the method described in the literature, Plant Physiology, 75, 827-831. In a test tube, […], followed by the addition of 0.15 ml of a 20 mM K2 HPO4 solution and 0.25 ml of a reaction substrate medium which consisted of 40 mM of K2 HPO4, 40 mM of sodium pyruvate, 1 mM of TPP, 1 mM of MgCl2 and 20 μM of FAD so that 0.4 ml of a reaction solution (Solution B) was prepared. Added to 0.4 ml of Solution B was 0.1 ml of Suspension A. After the resultant mixture was shaken for 1 hour in a thermostat water bath controlled at 30° C., 50 μl of 6N sulfuric acid were added to terminate the reaction.
(§4) Next, the reaction-terminated liquid mixture was transferred into a thermostat water bath controlled at 60° C. and was heated for 15 minutes. Thereafter, 0.5 ml of a 0.5% creatine solution and 0.5 ml of a 5% alkaline α-naphthol solution were added, and the resultant mixture was maintained at 60° C. for 15 minutes. As a result, the test solution developed a pink-red color. After the above operation, the absorbance of the test solution at 525 nm was measured by a spectrophotometer (Absorbance 1 of Test Compound).
(§5) On the other hand, the absorbance (Absorbance 2 of Blank) of a solution obtained by subjecting a portion of Solution B, said portion being free of the test compound, to the above operation and the absorbance (Absorbance 3 of sulfuric acid terminated) of another solution obtained by subjecting another portion of Solution B, said portion containing 50 μl of 6N sulfuric acid as a test compound, were measured at the same time. […] [formula]

[5] = system: Arrowhead sp. (Sagittaria pygmaea); assay: Submerged Soil Treatment Test (Growth Stage Treatment); assay type: in vivo; conditions: 30 g ai/a, growth stage treatment (barnyardgrass two-leaf stage), granule, observed 30 days later
Protocol: (§6) 1/5000-are Wagner pots were filled with soil. Seeds or tubers of barnyardgrass, bulrush and Sagittaria pygmaea were seeded or planted under submerged condition. Two pairs of rice seedlings (2-3 leaf stage), which had been reared in advance, were transplanted to each pot and were allowed to grow in a green house. Each pair consisted of two rice seedlings. When the barnyardgrass grew to the two-leaf stage, each pot was treated with a granule which had been prepared by processing a predetermined amount of the test composition in accordance with a similar method to the method described in Formulation Example 9. The state of emergence of weeds and the state of injury of rice were observed 30 days later. In the table, the degrees of damages of the test plants and the degrees of injury of the rice are shown in a similar manner to Example 2.

[6] = system: Bulrush (Scirpus juncoides); assay: as above; assay type: in vivo; conditions: 30 g ai/a, growth stage treatment (barnyardgrass two-leaf stage), granule, observed 30 days later
Protocol: as §6

[7] = system: Rice (Oryza sativa); assay: Submerged Soil Treatment Test (Pre-Emergence Treatment), crop injury; assay type: in vivo; conditions: 30 g ai/a, granule, transplanted rice, observed 30 days later
Protocol: as §6, with “allowed to germinate in a” for “allowed to grow in a”, “rice seedlings. On day later (before emergence of weeds), each pot” for “rice seedlings. When the barnyardgrass grew to the two-leaf stage, each pot”, “injury of rice are” for “injury of the rice are”

[8] = system: ALS (acetolactate synthase); assay: ALS (Acetolactate Synthase) Inhibition Test, barnyardgrass enzyme; assay type: biochemical; conditions: enzymoreaction inhibition rate at 10 ppm (5 μg/0.5 ml)
Protocol: as §2, §3, §4, §5

[9] = system: Crabgrass (Digitaria adsendens); assay: Upland Foliar Application Test; assay type: in vivo; conditions: 30 g ai/a; foliar application at 2-3 leaf stage, emulsion; observed on the 30th day
From the text: (§7) Resin-made 1/10000-are pots were filled with the soil of an upland field. Redroot pigweed, morningglory (Ipomoea pupurea), common lambsquarters, foxtail meadow, johnsongrass, barnyardgrass, green foxtail, large crabgrass, soybean, corn and cotton were separately seeded and were allowed to germinate in a green house. When each plant grew to the stage of 2-3 leaves, an emulsion formulated from a predetermined amount of each test compound in a similar manner to the method described in Formulation Example 11 was diluted with water and then sprayed at a predetermined application rate by means of a pressure-operated ULV (ultra low volume) sprayer. The application rate was controlled at 5 l per are. Influence to the crops and weeds were observed on the 30th day after the spray of the herbicides. The results are shown in Table 4 in which the degree of damages of each test plant and the degree of injury to each crop are shown in a similar manner to Test 2.

[10] = system: Redroot Pigweed; assay: Upland Foliar Application Test; assay type: in vivo; conditions: 30 g ai/a; foliar application at 2-3 leaf stage, emulsion; observed on the 30th day
From the text: as §7

[11] = system: Common lambsquarters; assay: Upland Foliar Application Test; assay type: in vivo; conditions: 30 g ai/a; foliar application at 2-3 leaf stage, emulsion; observed on the 30th day
From the text: as §7

[12] = system: Barnyardgrass (Echinochloa crus-galli); assay: Upland Foliar Application Test; assay type: in vivo; conditions: 30 g ai/a; foliar application at 2-3 leaf stage, emulsion; observed on the 30th day
From the text: as §7

[13] = system: Foxtail meadow; assay: Upland Foliar Application Test; assay type: in vivo; conditions: 30 g ai/a; foliar application at 2-3 leaf stage, emulsion; observed on the 30th day
From the text: as §7

[14] = system: Foxtail (Setaria viridis); assay: Upland Foliar Application Test; assay type: in vivo; conditions: 30 g ai/a; foliar application at 2-3 leaf stage, emulsion; observed on the 30th day
From the text: as §7

[15] = system: Johnsongrass; assay: Upland Foliar Application Test; assay type: in vivo; conditions: 30 g ai/a; foliar application at 2-3 leaf stage, emulsion; observed on the 30th day
From the text: as §7

Inhibition rate (%) Pea [4] | Inhibition rate (%) Barnyardgrass [8] | SMILES | Crop injury Soybean (Glycine max) [1] | Crop injury Cotton (Gossypium indicum) [2] | Crop injury Corn (Zea maize) [3] | Herbicidal effects Arrowhead sp. (Sagittaria pygmaea) [5] | Herbicidal effects Bulrush (Scirpus juncoides) [6] | Crop injury Rice (Oryza sativa) [7] | Herbicidal effects Crabgrass (Digitaria adsendens) [9] | Herbicidal effects Redroot Pigweed [10] | Herbicidal effects Common lambquarters [11] | Herbicidal effects Barnyardgrass (Echinochloa crus-galli) [12] | Herbicidal effects Foxtail meadow [13] | Herbicidal effects Foxtail (Setaria viridis) [14] | Herbicidal effects Johnsongrass [15]
0% | 100% | COc1cc(OC)nc(Oc2cccnc2C(OC)OC(C)C)n1 (stereo not drawn) [Compound No. 5, 3-(4.6-dimethoxy-2-pyrimidinyloxy)-2-pyridinecarboxaldehyde isopropylmethylacetal] | 0 (91-100 (No damages)) | 0 (91-100 (No damages)) | 0 (91-100 (No damages)) | 5 (0-5 (Death)) | 5 (0-5 (Death)) | 0 (91-100 (No damages)) | 4 (6-10 (Severe damages)) | 5 (0-5 (Death)) | 4 (6-10 (Severe damages)) | 5 (0-5 (Death)) | 5 (0-5 (Death)) | 5 (0-5 (Death)) | 5 (0-5 (Death))
0% | 96% | COc1cc(OC)nc(Oc2cccnc2C2OCCO2)n1 [Compound No. 6] | 0 (91-100 (No damages)) | 0 (91-100 (No damages)) | 0 (91-100 (No damages)) | 3 (11-40 (Medium damages)) | 5 (0-5 (Death)) | 0 (91-100 (No damages)) | 4 (6-10 (Severe damages)) | 5 (0-5 (Death)) | 4 (6-10 (Severe damages)) | 4 (6-10 (Severe damages)) | 5 (0-5 (Death)) | 4 (6-10 (Severe damages)) | 5 (0-5 (Death))
0% | 87% | COc1cc(OC)nc(Oc2cccnc2C2OCC(C)O2)n1 (stereo not drawn) [Compound No. 7] | 0 (91-100 (No damages)) | 0 (91-100 (No damages)) | 0 (91-100 (No damages)) | 4 (6-10 (Severe damages)) | 4 (6-10 (Severe damages)) | 0 (91-100 (No damages)) | 4 (6-10 (Severe damages)) | 5 (0-5 (Death)) | 4 (6-10 (Severe damages)) | 5 (0-5 (Death)) | 5 (0-5 (Death)) | 5 (0-5 (Death)) | 5 (0-5 (Death))
0% | 86% | COc1cc(OC)nc(Oc2cccnc2C2OCCCO2)n1 [Compound No. 8] | 0 (91-100 (No damages)) | 0 (91-100 (No damages)) | 0 (91-100 (No damages)) | 2 (41-70 (Small damages)) | 2 (41-70 (Small damages)) | 0 (91-100 (No damages)) | 3 (11-40 (Medium damages)) | 4 (6-10 (Severe damages)) | 4 (6-10 (Severe damages)) | 4 (6-10 (Severe damages)) | 4 (6-10 (Severe damages)) | 4 (6-10 (Severe damages)) | 5 (0-5 (Death))
